From US20100016156A1, “Pesticidal Mixtures” (BASF SE, priority 2007, published 2010) come the findings set out here.

Assay [1] concerns Blumeria graminis f. sp. tritici. The assay can be described thus: Control of powdery mildew on wheat (protective spray, greenhouse). Format: in vivo. Conditions: 7 days after inoculation, untreated 70% infection. How it is done:
Preparation: The spray solutions were prepared in several steps:
A stock solution was prepared: a mixture of acetone and/or DMSO and the wetting agent/emulsifier Uniperol, which is based on ethoxylated alkylphenoles, in a relation (volume) solvent-emulsifier of 99 to 1 was added to 25 mg of the compound to give a total of 10 ml. Water was then added to total volume of 100 ml.
This stock solution was diluted with the described solvent-emulsifier-water mixture to the given concentration.
The first fully developed leaves of pot grown wheat were sprayed to run-off with an aqueous suspension, containing the concentration of active ingredient or their mixture mentioned in the table below. […] After cultivation in the greenhouse for 7 days at 22-26° C. and a relative humidity between 60 to 90% the extent of fungal attack on the leaves was visually assessed as % diseased leaf area.
The visually determined percentages of infected leaf areas were converted into efficacies in % of the untreated control:
The efficacy (E) is calculated as follows using Abbot's formula: […]
The expected efficacies of active compound combinations were determined using Colby's formula (Colby, S. R. “Calculating synergistic and antagonistic responses of herbicide combinations”, Weeds, 15, 20-22, 1967) and compared with the observed efficacies. […]

Another assay concerns Pyrenophora teres. In words: Control of net blotch on barley (protective spray, greenhouse). It counts as in vivo, Pyrenophora (syn. Drechslera) teres. The conditions noted are these: 6 days after inoculation, untreated 70% infection. On the procedure: Preparation: The spray solutions were prepared in several steps: A stock solution was prepared: a mixture of acetone and/or DMSO and the wetting agent/emulsifier Uniperol, which is based on ethoxylated alkylphenoles, in a relation (volume) solvent-emulsifier of 99 to 1 was added to 25 mg of the compound to give a total of 10 ml. Water was then added to total volume of 100 ml. This stock solution was diluted with the described solvent-emulsifier-water mixture to the given concentration. The first fully developed leaves of pot grown barley plants were sprayed to run-off with an aqueous suspension, containing the concentration of active ingredient or their mentioned in the table below. The next day the treated plants were inoculated with an aqueous spore suspension of Pyrenophora (syn. Drechslera) teres. Then the trial plants were immediately transferred to a humid chamber in the greenhouse. After 6 days of cultivation at 20-24° C. and a relative humidity close to 70%, the extent of fungal attack on the leaves was visually assessed as % leaf area. Evaluation was carried out analogously to example 1.

Turning to `CN/C(=N\[N+](=O)[O-])NCc1cnc(Cl)s1` [Clothianidine, (E)-1-(2-chloro-1,3-thiazol-5-ylmethyl)-3-methyl-2-nitroguanidine], the “Efficacy in % of the untreated control” value (in assay [1] (0.25 ppm in spray liquor); in the assay with Pyrenophora teres (4 ppm in spray liquor); with Pyrenophora teres (16 ppm in spray liquor)) was 0% throughout.

Take `CO/N=C(/C1=NOCCO1)c1ccccc1Oc1ncnc(Oc2ccccc2Cl)c1F` [Fluoxastrobin, (E)-{2-[6-(2-chlorophenoxy)-5-fluoropyrimidin-4-yloxy]phenyl}(5,6-dihydro-1,4,2-dioxazin-3-yl)methanone O-methyloxime]: the “Efficacy in % of the untreated control” value (in assay [1] (0.063 ppm in spray liquor); in the assay with Pyrenophora teres (0.25 ppm in spray liquor)) was 0% in each case.
